Measured values taken from patent US7371780B2, “Use of calphostin C to treat drug-resistant tumor cells” (priority 2003, dated 2008).
pIC50: −log10 of the molar value.

Tests used:
Format in all cases: cell-based, human
[1] = test system: MCF-7 cells; test: Drug uptake (flow cytometry / scintillation counting), MCF-7; details: 100 nM calphostin C
Protocol: FIG. 5 illustrates the effect of calphostin C (Cal-C) on drug uptake in MCF-7 (square symbols), MCF-7TAX (diamond symbols) and MCF-7DOX (triangular symbols) cells. After one-day growth, the cells were left untreated (closed symbols) or treated with 100 nM calphostin C for 2 h with light activation (open symbols). Cells were then washed and the medium replaced with medium containing 2 μM of doxorubicin (A) or [^3H]-paclitaxel (B). The cells were then trypsinized and drug accumulation measured by flow cytometry (A) or liquid scintillation counting (B) at indicated time points. The figures are representative of three independent experiments.

[2] = test system: MCF-7TAX (paclitaxel-resistant) cells; test: Clonogenic assay, MCF-7TAX cells; details: MCF-7TAX cells; 24 h drug; calphostin C light-activated 2 h
Protocol: The breast cancer cell line MCF-7 (lot HTB-22) was obtained from the American […] (ATCC) and maintained in Dulbecco's H21 medium (MEM) supplemented with 10% Fetal Bovine Serum (FBS) (HyClone, Logan, Utah) in a humidified atmosphere containing 5% CO2 at 37° C. To establish drug resistant cell lines, MCF-7 cells were grown in the presence of either paclitaxel or doxorubicin, beginning at a concentration 1000-fold below that required to kill 50% of the cells (the IC50). The drug concentration was increased 3-fold every two weeks (two passages), with an aliquot of the cells removed for storage in liquid nitrogen before each increase in concentration. Dose escalation continued until all cells died, after which the cells able to tolerate the highest concentration of drug were thawed for subsequent study. In this way, paclitaxel-resistant (MCF-7TAX) and doxorubicin-resistant (MCF-7DOX) cell lines were established. The IC50 for each drug was determined using a clonogenic assay as outlined below. The drug resistant cells were kept in culture in the presence of the maximally tolerated drug dose. Before each experiment, the cell lines were grown for two days in the absence of drug after which fresh medium containing either calphostin C (Sigma Laboratories, Oakville, ON), doxorubicin (Adriamycin PFS®, USP, Mississauga, ON) or paclitaxel (Taxol, Bristol-Myers Squibb, Montreal, QC) was added at the concentrations indicated.
The sensitivity of MCF-7, MCF-7TAX and MCF-7DOX cells to calphostin C, paclitaxel or doxorubicin was determined using a clonogenic assay. Briefly, 2.5×10^5 cells were seeded into 25 cm^2 tissue culture flasks in Dulbecco's H21 medium supplemented with 10% FBS. The cells were allowed to grow overnight, after which the medium was removed and replaced with medium containing varying concentrations of paclitaxel, doxorubicin, or calphostin C (after 2 hours of light exposure to activate the molecule). […] The colonies present in 5 randomly selected fields were then counted by visual inspection. […]

[3] = test system: MCF-7DOX cells; test: Microscopic cell morphology, MCF-7DOX; details: data not shown
Protocol: For microscopic observation, cells were seeded onto standard glass coverslips in 10 cm tissue culture plates with 10 ml of H21 medium and grown for 2 days until 40-50% confluence was obtained. After treatment with paclitaxel, doxorubicin or calphostin C, the cells on the glass coverslips were washed twice with PBS (2.7 mM KCl, 1.0 mM KH2PO4, 137 mM NaCl, 10 mM Na2HPO4, pH 7.4) and stained with acridine orange/ethidium bromide (each at 4 μg/ml in PBS) for 10 min at 37° C.. The coverslips were then washed three times in PBS and mounted onto standard glass slides for morphological evaluation. For propidium iodide (PI) staining, the cells on coverslips were washed twice with PBS and fixed in methanol (cooled to −20° C.) for 20 min. Thirty μl of propidium iodide (PI) staining solution (100 μg/ml PI, 0.1% sodium citrate, 100 μg/ml RNase A and 0.3% Nonidet P-40) were then applied to the coverslips for 5 min. […] The cells were then examined using a Zeiss Axiovert 100 inverted fluorescence microscope. […] For each sample, the number of dead cells was determined by visualization after ethidium bromide staining, whereby only dead cells which have lost membrane integrity allow entry of cell-impermeable ethidium bromide into cells to complex with DNA and induce bright red fluorescence. […] The images were recorded and overlayed using Northern Eclipse software (Empix Imaging Inc., Mississauga, ON).

COc1c(C[C@@H](C)OC(=O)Oc2ccc(O)cc2)c2c3c(C[C@@H](C)OC(=O)c4ccccc4)c(OC)c(=O)c4c(O)cc(OC)c(c5c(OC)cc(O)c(c1=O)c52)c43 [calphostin C]
effect on paclitaxel accumulation [1]: decreased paclitaxel accumulation | pIC50 [2]: 8.04 | concentration giving cytoplasmic vacuolization equal to MCF-7 and MCF-7TAX cells at 50 nM [3]: 300 nM
